# Measurements taken from US20230365592A1 (Agios Pharmaceuticals, Inc., priority 2022, published 2023).
# Molecular target: T1, human PAH with the R408W mutation (Homo sapiens, UniProt P00439, R408W)
# T1 construct: expressed in transfected cells
# T1 sequence (P00439 1-452 R408W): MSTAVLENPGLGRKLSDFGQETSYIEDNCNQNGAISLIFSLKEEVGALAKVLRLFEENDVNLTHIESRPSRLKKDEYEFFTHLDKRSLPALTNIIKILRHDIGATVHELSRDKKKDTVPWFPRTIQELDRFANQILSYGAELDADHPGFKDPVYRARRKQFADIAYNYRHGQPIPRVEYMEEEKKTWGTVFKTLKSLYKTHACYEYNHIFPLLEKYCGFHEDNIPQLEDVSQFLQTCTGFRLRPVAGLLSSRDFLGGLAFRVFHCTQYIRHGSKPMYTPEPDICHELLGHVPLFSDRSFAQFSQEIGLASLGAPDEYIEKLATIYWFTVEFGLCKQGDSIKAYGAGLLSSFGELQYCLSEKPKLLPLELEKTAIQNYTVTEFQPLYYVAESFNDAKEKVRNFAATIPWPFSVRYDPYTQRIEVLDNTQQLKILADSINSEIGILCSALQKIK
# Assay: Cell Based Phenylalanine Flux Assay;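 also: after compound treatment, cells received sepiapterin plus isotope-labelled Phenylalanine for 4 hours, then labelled Tyrosine in the medium was quantified, 10-point 2-fold dilution series run in duplicate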
# Conditions: A375 cells expressing human PAH R408W; 24 hrs compound incubation; 13C-Tyrosine by LC-MS; average where tested multiple times; read-out: AC50
# Description: Compounds were resuspended in DMSO, and 2-fold serial dilutions were performed to generate a 10-point dose curve. Compounds were added to plated cells in a total volume of 100 µl, and a final DMSO concentration of 0.5%. Each compound was tested in duplicate. Following compound addition, cells were placed in a 5% CO2, 37° C. tissue culture incubator for 24 hrs. After the incubation period, 20 µM sepiapterin and 800 µM 13C9,15N-Phenylalanine were added. After 4 hours, cell media was removed. An aliquot of 10 µl of cell media was combined with 200 µl of extraction buffer (80% acetonitrile/20% H2O) for each well. Determination of ^13C-Tyrosine concentration was assessed by liquid chromatography mass spectrometry.
# Where a compound was tested multiple times, the average value of the tests is reported.
row,AC50 [nM],Compound
1,< 500,"Cc1cccn2nc([C@@H]3c4nc[nH]c4CCN3C(=O)[C@@H]3CC3(F)F)cc12 [Example 2028, ((S)-2,2-difluorocyclopropyl)((S)-4-(4-methylpyrazolo[1,5-a]pyridin-2-yl)-1,4,6,7-tetrahydro-5H-imidazo[4,5-c]pyridin-5-yl)methanone]"
2,> 5000,"Cc1cccn2nc([C@H]3c4nc[nH]c4CCN3C(=O)[C@@H]3CC3(F)F)cc12 [Example 2029, ((S)-2,2-difluorocyclopropyl)((R)-4-(4-methylpyrazolo[1,5-a]pyridin-2-yl)-1,4,6,7-tetrahydro-5H-imidazo[4,5-c]pyridin-5-yl)methanone]"
3,1000 to 5000,"O=C([C@@H]1CC1(F)F)N1CCc2[nH]cnc2[C@@H]1c1cc2c(F)cccn2n1 [Example 2031, ((S)-2,2-difluorocyclopropyl)((R)-4-(4-fluoropyrazolo[1,5-a]pyridin-2-yl)-1,4,6,7-tetrahydro-5H-imidazo[4,5-c]pyridin-5-yl)methanone]"
4,< 500,"O=C(c1cnc(-c2ccccn2)o1)N1CCc2[nH]cnc2[C@H]1c1cc2c(F)cccn2n1 [Example 2032, (S)-(4-(4-fluoropyrazolo[1,5-a]pyridin-2-yl)-1,4,6,7-tetrahydro-5H-imidazo[4,5-c]pyridin-5-yl)(2-(pyridin-2-yl)oxazol-5-yl)methanone]"
5,> 5000,"O=C(c1cnc(-c2ccccn2)o1)N1CCc2[nH]cnc2[C@@H]1c1cc2c(F)cccn2n1 [Example 2033, (R)-(4-(4-fluoropyrazolo[1,5-a]pyridin-2-yl)-1,4,6,7-tetrahydro-5H-imidazo[4,5-c]pyridin-5-yl)(2-(pyridin-2-yl)oxazol-5-yl)methanone]"
6,500 to 1000,"O=C(c1cnc(-c2ccccn2)o1)N1CCc2[nH]cnc2[C@H]1c1cc2c(C(F)F)cccn2n1 [Example 2034, (S)-(4-(4-(difluoromethyl)pyrazolo[1,5-a]pyridin-2-yl)-1,4,6,7-tetrahydro-5H-imidazo[4,5-c]pyridin-5-yl)(2-(pyridin-2-yl)oxazol-5-yl)methanone]"
7,> 5000,"O=C(c1cnc(-c2ccccn2)o1)N1CCc2[nH]cnc2[C@@H]1c1cc2c(C(F)(F)F)cccn2n1 [Example 2037, (R)-(2-(pyridin-2-yl)oxazol-5-yl)(4-(4-(trifluoromethyl)pyrazolo[1,5-a]pyridin-2-yl)-1,4,6,7-tetrahydro-5H-imidazo[4,5-c]pyridin-5-yl)methanone]"
8,1000 to 5000,"O=C(c1ocnc1C1CC1)N1CCc2[nH]cnc2[C@@H]1c1cc2c(Cl)cccn2n1 [Example 2041, (R)-(4-(4-chloropyrazolo[1,5-a]pyridin-2-yl)-1,4,6,7-tetrahydro-5H-imidazo[4,5-c]pyridin-5-yl)(4-cyclopropyloxazol-5-yl)methanone]"
9,500 to 1000,"O=C(c1ocnc1C1CC1)N1CCc2[nH]cnc2[C@H]1c1cc2cccc(Cl)n2n1 [Example 2042, (S)-(4-(7-chloropyrazolo[1,5-a]pyridin-2-yl)-1,4,6,7-tetrahydro-5H-imidazo[4,5-c]pyridin-5-yl)(4-cyclopropyloxazol-5-yl)methanone]"
10,1000 to 5000,"O=C(c1ocnc1C1CC1)N1CCc2[nH]cnc2[C@@H]1c1cc2cccc(Cl)n2n1 [Example 2043, (R)-(4-(7-chloropyrazolo[1,5-a]pyridin-2-yl)-1,4,6,7-tetrahydro-5H-imidazo[4,5-c]pyridin-5-yl)(4-cyclopropyloxazol-5-yl)methanone]"
11,> 5000,"Cn1cc(-c2nnc(C(=O)N3CCc4[nH]cnc4[C@@H]3c3cc4ccccn4n3)s2)cn1 [Example 2044, (R)-(5-(1-methyl-1H-pyrazol-4-yl)-1,3,4-thiadiazol-2-yl)(4-(pyrazolo[1,5-a]pyridin-2-yl)-1,4,6,7-tetrahydro-5H-imidazo[4,5-c]pyridin-5-yl)methanone]"
12,500 to 1000,"Cn1cc(-c2nnc(C(=O)N3CCc4[nH]cnc4[C@H]3c3cc4ccccn4n3)s2)cn1 [Example 2045, (S)-(5-(1-methyl-1H-pyrazol-4-yl)-1,3,4-thiadiazol-2-yl)(4-(pyrazolo[1,5-a]pyridin-2-yl)-1,4,6,7-tetrahydro-5H-imidazo[4,5-c]pyridin-5-yl)methanone]"
13,> 5000,"Cc1cccn2nc([C@H]3c4nc[nH]c4CCN3C(=O)c3nnc(-c4cnn(C)c4)s3)cc12 [Example 2046, (R)-(5-(1-methyl-1H-pyrazol-4-yl)-1,3,4-thiadiazol-2-yl)(4-(4-methylpyrazolo[1,5-a]pyridin-2-yl)-1,4,6,7-tetrahydro-5H-imidazo[4,5-c]pyridin-5-yl)methanone]"
14,500 to 1000,"Cc1cccn2nc([C@@H]3c4nc[nH]c4CCN3C(=O)c3nnc(-c4cnn(C)c4)s3)cc12 [Example 2047, (S)-(5-(1-methyl-1H-pyrazol-4-yl)-1,3,4-thiadiazol-2-yl)(4-(4-methylpyrazolo[1,5-a]pyridin-2-yl)-1,4,6,7-tetrahydro-5H-imidazo[4,5-c]pyridin-5-yl)methanone]"
15,500 to 1000,"O=C(c1nc2ccccc2o1)N1CCc2[nH]cnc2[C@H]1c1cc2ccccn2n1 [Example 2048, (S)-benzo[d]oxazol-2-yl(4-(pyrazolo[1,5-a]pyridin-2-yl)-1,4,6,7-tetrahydro-5H-imidazo[4,5-c]pyridin-5-yl)methanone]"
16,> 5000,"O=C(c1nc2ccccc2o1)N1CCc2[nH]cnc2[C@@H]1c1cc2ccccn2n1 [Example 2049, (R)-benzo[d]oxazol-2-yl(4-(pyrazolo[1,5-a]pyridin-2-yl)-1,4,6,7-tetrahydro-5H-imidazo[4,5-c]pyridin-5-yl)methanone]"
17,> 5000,"O=C(c1nc2ccccc2o1)N1CCc2[nH]cnc2[C@@H]1c1cc2c(F)cccn2n1 [Example 2051, (R)-benzo[d]oxazol-2-yl(4-(4-fluoropyrazolo[1,5-a]pyridin-2-yl)-1,4,6,7-tetrahydro-5H-imidazo[4,5-c]pyridin-5-yl)methanone]"
18,500 to 1000,"O=C(c1nc2ccccc2o1)N1CCc2[nH]cnc2[C@H]1c1cc2c(C(F)F)cccn2n1 [Example 2052, (S)-benzo[d]oxazol-2-yl(4-(4-(difluoromethyl)pyrazolo[1,5-a]pyridin-2-yl)-1,4,6,7-tetrahydro-5H-imidazo[4,5-c]pyridin-5-yl)methanone]"
19,> 5000,"O=C(c1nc2ccccc2o1)N1CCc2[nH]cnc2[C@@H]1c1cc2c(C(F)F)cccn2n1 [Example 2053, (R)-benzo[d]oxazol-2-yl(4-(4-(difluoromethyl)pyrazolo[1,5-a]pyridin-2-yl)-1,4,6,7-tetrahydro-5H-imidazo[4,5-c]pyridin-5-yl)methanone]"
20,500 to 1000,"O=C(c1nc2ccccc2o1)N1CCc2[nH]cnc2[C@H]1c1cc2c(C(F)(F)F)cccn2n1 [Example 2054, (S)-benzo[d]oxazol-2-yl(4-(4-(trifluoromethyl)pyrazolo[1,5-a]pyridin-2-yl)-1,4,6,7-tetrahydro-5H-imidazo[4,5-c]pyridin-5-yl)methanone]"
21,> 5000,"O=C(c1nc2ccccc2o1)N1CCc2[nH]cnc2[C@@H]1c1cc2c(C(F)(F)F)cccn2n1 [Example 2055, (R)-benzo[d]oxazol-2-yl(4-(4-(trifluoromethyl)pyrazolo[1,5-a]pyridin-2-yl)-1,4,6,7-tetrahydro-5H-imidazo[4,5-c]pyridin-5-yl)methanone]"
